{"source": "patent US12473269B2", "about": "“Urolithin derivatives and methods of use thereof” (Vandria SA, priority 2021, dated 2025)", "origin": "cited, not measured here", "system": "C2C12 myoblasts", "conditions": "treatment of C2C12 myoblasts; mitochondrial fragmentation and decrease in mitochondrial content; Ryu et al., Nat Med 2016", "data": [{"smiles": "O=c1oc2cc(O)ccc2c2ccc(O)cc12", "note": "[UA, Urolithin A]", "values": [{"measurement": "induction of mitophagy", "value": "induction of mitophagy"}]}]}
